Here are results for eight molecules from PubChem BioAssay (NCI).

Each structure is given as a SMILES string.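 A five-concentration, 48-hour dose response in 96-well plates underlies each endpoint, interpolated linearly between surrounding concentrations. The concentration for full growth arrest is given as TGI.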 A value given as a limit tells only on which side of the number the result lay.

Some test systems named below: SNB-19 CNS; M14 melanoma; HCT-116 colon; SK-MEL-28 melanoma; K-562 leukemia; UO-31 renal; UACC-62 melanoma; SW-620 colon; SF-539 CNS; MDA-MB-231 breast; SR leukemia; LOX IMVI melanoma; IGROV1 ovarian; A549 NSCLC; SF-295 CNS; PC-3 prostate; OVCAR-5 ovarian; NCI-H226 lung.
Assay in all cases: NCI-60 cell line screen, 48 h

Consider `O=C(O)C1=NN(c2ccc(S(=O)(=O)O)cc2)C2(C1)SCC(=O)N2c1nc2ccccc2s1` (stereo not drawn), for which the TGI with SNB-19 CNS, with M14 melanoma, in the assay on HCT-116 colon, with SK-MEL-28 melanoma, with K-562 leukemia and in the assay on UO-31 renal was above 100 µM throughout. The TGI with UACC-62 melanoma, with SW-620 colon, with SF-539 CNS, with MDA-MB-231 breast, in the assay on SR leukemia and in the assay on LOX IMVI melanoma was above 100 µM each time. The TGI in the assay with IGROV1 ovarian, in the assay on A549 NSCLC, in the assay with SF-295 CNS, with PC-3 prostate, with OVCAR-5 ovarian and with NCI-H226 lung was above 100 µM in each case.
With `O=c1[nH]c2cc([N+](=O)[O-])ccc2nc1/C=C(\O)c1ccc(Cl)cc1`, the TGI was 24 µM in the assay with SNB-19 CNS; 28.4 µM in the assay on M14 melanoma; 11.8 µM with HCT-116 colon; 22.9 µM with SK-MEL-28 melanoma; above 100 µM with K-562 leukemia; 86.2 µM with UO-31 renal. Also, the TGI is 30.3 µM in the assay with UACC-62 melanoma; 28.9 µM in the assay on SW-620 colon; 23.1 µM with SF-539 CNS; 24.7 µM in the assay on MDA-MB-231 breast; 38.9 µM in the assay on SR leukemia; 25.4 µM with LOX IMVI melanoma. Besides, the TGI in the assay with IGROV1 ovarian came out at 26.6 µM; with A549 NSCLC, 22.6 µM; in the assay with SF-295 CNS, 27.4 µM; in the assay with PC-3 prostate it was 32.5 µM; with OVCAR-5 ovarian it was 46 µM; in the assay with NCI-H226 lung, 40.6 µM.
On to `CC12C(=O)OC(=O)C1(C)C1C=CC2O1` (stereo not drawn), for which the TGI with SNB-19 CNS, with M14 melanoma, in the assay on HCT-116 colon, in the assay with SK-MEL-28 melanoma, with K-562 leukemia and with UO-31 renal was above 100 µM each time. The TGI in the assay on UACC-62 melanoma, in the assay with SW-620 colon, with SF-539 CNS, in the assay on MDA-MB-231 breast, in the assay on SR leukemia and with LOX IMVI melanoma was above 100 µM throughout. The TGI in the assay with IGROV1 ovarian is above 100 µM; in the assay on A549 NSCLC, above 100 µM; in the assay with SF-295 CNS it was above 100 µM; in the assay with PC-3 prostate it was above 100 µM; with OVCAR-5 ovarian, above 100 µM; in the assay with NCI-H226 lung, 48.1 µM.
For the molecule `OC(CC(O)(C(F)(F)F)C(F)(F)F)C(O)c1ccco1` (stereo not drawn), the TGI in the assay on SNB-19 CNS, in the assay on M14 melanoma, in the assay on HCT-116 colon, in the assay on SK-MEL-28 melanoma, with K-562 leukemia and with UO-31 renal was above 10 µM each time. Also, the TGI with UACC-62 melanoma, with SW-620 colon, in the assay with SF-539 CNS, in the assay on MDA-MB-231 breast, with SR leukemia and in the assay with LOX IMVI melanoma was above 10 µM each time. Besides, the TGI with IGROV1 ovarian, in the assay with A549 NSCLC, with SF-295 CNS, in the assay on PC-3 prostate and in the assay with NCI-H226 lung was above 10 µM each time.
For `O=C(c1ccccc1)C1C[C@H]2CO[C@H](c3ccccc3)N2C1=O` (stereo partly drawn), the TGI with SNB-19 CNS, in the assay on M14 melanoma, in the assay on HCT-116 colon, in the assay on SK-MEL-28 melanoma, with K-562 leukemia and with UO-31 renal was above 100 µM in each case. For the same molecule, the TGI in the assay with UACC-62 melanoma, in the assay on SW-620 colon, with SF-539 CNS, with MDA-MB-231 breast, in the assay with SR leukemia and in the assay with LOX IMVI melanoma was above 100 µM in each case. Moreover, the TGI with IGROV1 ovarian, with A549 NSCLC, with SF-295 CNS, in the assay on PC-3 prostate, with OVCAR-5 ovarian and with NCI-H226 lung was above 100 µM throughout.
In the case of `Cc1ccc(C2SCC(=O)N2NC(=O)c2ccncc2)s1` (stereo not drawn), the TGI in the assay with SNB-19 CNS, in the assay with M14 melanoma, with HCT-116 colon, in the assay with SK-MEL-28 melanoma, in the assay on K-562 leukemia and in the assay on UO-31 renal was above 100 µM throughout. The TGI with UACC-62 melanoma, in the assay on SW-620 colon, in the assay on SF-539 CNS, with MDA-MB-231 breast, with SR leukemia and with LOX IMVI melanoma was above 100 µM throughout. Also, the TGI with IGROV1 ovarian, with A549 NSCLC, with SF-295 CNS, with PC-3 prostate, in the assay with OVCAR-5 ovarian and in the assay on NCI-H226 lung was above 100 µM each time.
Take `CCOC(=O)c1ccc(N=c2oc3ccc(OC)cc3cc2-c2nc3ccccc3[nH]2)cc1`: the TGI with SNB-19 CNS, in the assay with M14 melanoma, with HCT-116 colon, in the assay on SK-MEL-28 melanoma, in the assay on K-562 leukemia and in the assay with UO-31 renal was above 100 µM in each case. The TGI was above 100 µM with UACC-62 melanoma; above 100 µM in the assay with SW-620 colon; 6.03 µM in the assay with SF-539 CNS; above 100 µM with MDA-MB-231 breast; above 100 µM with SR leukemia; above 100 µM in the assay on LOX IMVI melanoma. Besides, the TGI in the assay with IGROV1 ovarian is above 100 µM; in the assay on A549 NSCLC it was above 100 µM; in the assay with SF-295 CNS, above 100 µM; with PC-3 prostate it was above 100 µM; with OVCAR-5 ovarian, above 100 µM; in the assay on NCI-H226 lung it was 8.58 µM.
On to `O=C1OC(CS(=O)(=O)c2ccccc2)CC1O` (stereo not drawn), for which the TGI in the assay on SNB-19 CNS, in the assay with M14 melanoma, with HCT-116 colon, in the assay with SK-MEL-28 melanoma, in the assay on K-562 leukemia and in the assay on UO-31 renal was above 100 µM each time. Also, the TGI in the assay with UACC-62 melanoma, with SW-620 colon, in the assay with SF-539 CNS, in the assay with MDA-MB-231 breast, with SR leukemia and in the assay with LOX IMVI melanoma was above 100 µM each time. Besides, the TGI with IGROV1 ovarian, with A549 NSCLC, with SF-295 CNS, in the assay with PC-3 prostate, with OVCAR-5 ovarian and with NCI-H226 lung was above 100 µM each time.
